In this test the target is T1, Dipeptidyl Peptidase-IV (DPP-IV) (Homo sapiens, UniProt P27487).
T1 construct: made in house
T1 sequence (P27487 whole entry): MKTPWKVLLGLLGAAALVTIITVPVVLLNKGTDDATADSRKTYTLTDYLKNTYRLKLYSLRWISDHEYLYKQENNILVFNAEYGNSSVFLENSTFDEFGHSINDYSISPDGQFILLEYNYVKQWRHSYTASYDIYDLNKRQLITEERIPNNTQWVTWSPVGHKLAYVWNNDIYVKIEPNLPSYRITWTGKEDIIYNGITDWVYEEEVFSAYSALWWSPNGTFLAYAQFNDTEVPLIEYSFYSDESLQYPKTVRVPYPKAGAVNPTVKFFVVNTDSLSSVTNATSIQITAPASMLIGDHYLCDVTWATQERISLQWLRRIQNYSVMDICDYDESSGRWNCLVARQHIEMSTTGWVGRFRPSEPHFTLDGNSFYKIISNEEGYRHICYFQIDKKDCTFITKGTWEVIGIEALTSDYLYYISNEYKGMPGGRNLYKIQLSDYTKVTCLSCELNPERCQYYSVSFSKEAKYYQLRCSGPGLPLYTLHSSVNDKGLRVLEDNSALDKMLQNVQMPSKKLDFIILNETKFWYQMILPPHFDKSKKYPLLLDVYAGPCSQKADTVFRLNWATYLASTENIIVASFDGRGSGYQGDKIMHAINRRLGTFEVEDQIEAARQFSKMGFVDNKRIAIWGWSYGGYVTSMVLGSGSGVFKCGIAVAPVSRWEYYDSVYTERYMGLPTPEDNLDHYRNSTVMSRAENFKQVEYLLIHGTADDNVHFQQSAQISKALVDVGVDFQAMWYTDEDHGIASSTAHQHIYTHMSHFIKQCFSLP
As to the kind of experiment: Measurement of DPP-IV Activity-Inhibiting Ability (fluorescent substrate Ac-Gly-Pro-AFC). It is filed as biochemical. To be noted: 25° C., 50 mmol HEPES (pH 7.4), DP-IV 7.1 nM, enzyme reaction for 1 hour. The source says: Dipeptidyl Peptidase-IV (DPP-IV), known as serine protease, was obtained by a modification of the known method (Tanaka T. et al, Proc. Natl. Acad. Sci. USA, (1994) 91, 3082-3086), which comprises cloning, purification by use of Baculo-Virus and activation steps. DPP-IV was used to test the pharmaceutical efficacy of candidate inhibitors as follows. The cloned DP-IV was expressed in Baculo-Virus, which was purified by nickel column and then subjected to dialysis. The inhibitors synthesized in Examples were tested to determine the binding activity there of using a fluorescent substrate, Ac-Gly-Pro-AFC. Enzyme reactions were conducted for various concentrations of inhibitors, using 100 µM Ac-Gly-Pro-AFC at 25° C. in a buffer solution containing 50 mmol HEPES (pH 7.4), with the concentration of DP-IV being 7.1 nM. […] As the fluorescent spectrometer, Spectra MAX GeminiXS fluorescent spectrometer from Molecular Device Co. was used and the excitation frequency and emission frequency were set to 400 nm and 505 nm, respectively.
Regarding `N[C@@H](CC(=O)N1CCc2c(nc(C(F)(F)F)nc2C(F)(F)F)C1)CN1CC(C(F)(F)F)CC1=O` (stereo partly drawn) [Ex. 108, 1-{(2S)-2-amino-4-[2,4-bis(trifluoromethyl)-5,8-dihydropyrido[3,4-d]pyrimidin-7(6H)-yl]-4-oxobutyl}-4-(trifluoromethyl)pyrrolidin-2-one], the IC50 – broadly, the concentration needed to halve the response being measured – was 54 nM.

`CCc1nc2c(c(C(F)(F)F)n1)CCN(C(=O)C[C@H](N)CN1C[C@H](C)OCC1=O)C2` [Ex. 73, (6S)-4-{(2S)-2-amino-4-[2-ethyl-4-(trifluoromethyl)-5,8-dihydropyrido[3,4-d]pyrimidin-7(6H)-yl]-4-oxobutyl}-6-methylmorpholine-3-one] displayed an IC50 of 27 nM.

Take `N[C@@H](CC(=O)N1CCc2c(nc(-c3ccc[nH]3)nc2C(F)(F)F)C1)CN1CC(F)(F)CCC1=O` [Ex. 69, 1-{(2S)-2-amino-4-oxo-4-[2-(1H-pyrrol-2-yl)-4-(trifluoromethyl)-5,8-dihydropyrido[3,4-d]pyrimidin-7(6H)-yl]butyl}-5,5-difluoropiperidin-2-one]: the IC50 was found to be 55 nM.

`N[C@@H](CC(=O)N1CCc2ccccc2C1)CN1CCCCC1=O` [Ex. 17, 1-[2S-amino-4-(3,4-dihydro-1H-isoquinolin-2-yl)-4-oxo-butyl]-piperidin-2-one]: half-maximal inhibition (IC50) was put at 2020 nM.

As to `N[C@@H](CC(=O)N1CCc2c(ncnc2C(F)(F)F)C1)CN1CC(F)(F)CCC1=O` [Ex. 87, 1-{(2S)-2-amino-4-oxo-4-[4-(trifluoromethyl)-5,8-dihydropyrido[3,4-d]pyrimidin-7(6H)-yl]butyl}-5,5-difluoropiperidin-2-one], the IC50 turned out to be 29 nM.

The molecule `N[C@@H](CC(=O)N1CCn2c(nnc2C(F)(F)F)C1)CN1CCCC(F)C1=O` (stereo partly drawn) [Ex. 7, 1-[2S-amino-4-oxo-4-(3-trifluoromethyl-5,6-dihydro-8H-[1,2,4]triazolo[4,3-a]pyrazin-7-yl)-butyl]-3-fluoro-piperidin-2-one] displayed an IC50 greater than 10000 nM.

In the case of `CC1CCN(C[C@@H](N)CC(=O)N2CCn3c(nnc3C(F)(F)F)C2)C1=O` (stereo partly drawn) [Ex. 8, 1-[2S-amino-4-oxo-4-(3-trifluoromethyl-5,6-dihydro-8H-[1,2,4]triazolo[4,3-a]pyrazin-7-yl)-butyl]-3-methyl-pyrrolidin-2-one], inhibition was half-maximal at 4150 nM (IC50).

Molecule `N[C@@H](CC(=O)N1CCn2c(nnc2C(F)(F)C(F)(F)F)C1)CN1CC(F)(F)CCC1=O` [Ex. 89, 1-{(2S)-2-amino-4-oxo-4-[3-(pentafluoroethyl)-5,6-dihydro[1,2,4]triazolo[4,3-a]pyrazin-7(8H)-yl]butyl}-5,5-difluoropiperidin-2-one] registered an IC50 of 214 nM.

Consider `N[C@@H](CC(=O)N1CCc2c(nc(-c3cccs3)nc2C(F)(F)F)C1)CN1CC(F)(F)CCC1=O` [Ex. 63, 1-{(2S)-2-amino-4-oxo-4-[2-(2-thienyl)-4-(trifluoromethyl)-5,8-dihydropyrido[3,4-d]pyrimidin-7(6H)-yl]butyl}-5,5-difluoropiperidin-2-one], for which the IC50 came out at 35 nM.

`C[C@H]1CN(C[C@@H](N)CC(=O)N2CCc3c(nc(C(F)(F)C(F)(F)F)nc3C(F)(F)F)C2)C(=O)CO1` [Ex. 97, (6S)-4-{(2S)-2-amino-4-oxo-4-[2-(pentafluoroethyl)-4-(trifluoromethyl)-5,8-dihydropyrido[3,4-d]pyrimidin-7(6H)-yl]butyl}-6-methylmorpholine-3-one] yielded an IC50 of 57 nM.

Turning to `CCc1nc2c(c(C(F)(F)F)n1)CCN(C(=O)C[C@H](N)CN1CC(F)(F)CCC1=O)C2` [Ex. 72, 1-{(2S)-2-amino-4-[2-ethyl-4-(trifluoromethyl)-5,8-dihydropyrido[3,4-d]pyrimidin-7(6H)-yl]-4-oxobutyl}-5,5-difluoropiperidin-2-one], the IC50 was found to be 23 nM.

`N[C@@H](CC(=O)N1CCc2c(nc(-c3cccnc3)nc2C(F)(F)F)C1)CN1CC(F)(F)CCC1=O` [Ex. 71, 1-{(2S)-2-amino-4-oxo-4-[2-pyridin-3-yl-4-(trifluoromethyl)-5,8-dihydropyrido[3,4-d]pyrimidin-7(6H)-yl]butyl}-5,5-difluoropiperidin-2-one] returned an IC50 of 5 nM.

For `N[C@@H](CC(=O)N1CCc2c(nc(Cc3ccc(F)cc3)nc2C(F)(F)F)C1)CN1CC(F)(F)CCC1=O` [Ex. 59, 1-{(2S)-2-amino-4-[2-(4-fluorobenzyl)-4-(trifluoromethyl)-5,8-dihydropyrido[3,4-d]pyrimidin-7(6H)-yl]-4-oxobutyl}-5,5-difluoropiperidin-2-one], the IC50 was 36 nM.

Molecule `C[C@@H]1CN(C[C@@H](N)CC(=O)N2CCn3c(nnc3C(F)(F)F)C2)C(=O)CO1` [Ex. 77, (6R)-4-{(2S)-2-amino-4-oxo-4-[3-(trifluoromethyl)-5,6-dihydro[1,2,4]triazolo[4,3-a]pyrazin-7(8H)-yl]butyl}-6-methylmorpholine-3-one] gave an IC50 of 94 nM.

For `N[C@@H](CC(=O)N1CCc2c(nc(C3CC3)nc2C(F)(F)F)C1)CN1CC(F)(F)CCC1=O` [Ex. 25, 1-{(2S)-2-amino-4-[2-cyclopropyl-4-(trifluoromethyl)-5,8-dihydropyrido[3,4-d]pyrimidin-7(6H)-yl]-4-oxobutyl}-5,5-difluoropiperidin-2-one], the IC50 amounted to 9 nM.

Take `CC(C)c1nc2c(c(C(F)(F)F)n1)CCN(C(=O)C[C@H](N)CN1CC(F)(F)CCC1=O)C2` [Ex. 74, 1-{(2S)-2-amino-4-[2-isopropyl-4-(trifluoromethyl)-5,8-dihydropyrido[3,4-d]pyrimidin-7(6H)-yl]-4-oxobutyl}-5,5-difluoropiperidin-2-one]: 26 nM corresponded to half-maximal inhibition (IC50).

The molecule `C[C@@H]1CCC(=O)N(C[C@@H](N)CC(=O)N2CCc3sc(-c4ccc(C(F)(F)F)cc4)nc3C2)C1` [Ex. 41, (5R)-1-[(2S)-2-amino-4-oxo-4-{2-[4-(trifluoromethyl)phenyl]-6,7-dihydro[1,3]thiazolo[4,5,c]pyridin-5(4H)-yl}butyl]-5-methylpiperidin-2-one] came in with an IC50 of 14 nM.

`CC1CC(=O)N(C[C@@H](N)CC(=O)N2CCc3c(nc(C(F)(F)F)nc3C(F)(F)F)C2)C1` (stereo partly drawn) [Ex. 105, 1-{(2S)-2-amino-4-[2,4-bis(trifluoromethyl)-5,8-dihydropyrido[3,4-d]pyrimidin-7(6H)-yl]-4-oxobutyl}-4-methyloxopyrrolidin-2-one] registered an IC50 of 59 nM.

`N[C@@H](CC(=O)N1CCn2c(nnc2C(F)(F)F)C1)CN1CC(C(F)(F)F)CC1=O` (stereo partly drawn) [Ex. 13, 1-[2S-amino-4-oxo-4-(3-trifluoromethyl-5,6-dihydro-8H-[1,2,4]triazolo[4,3-a]pyrazin-7-yl)-butyl]-4-trifluoromethyl-pyrrolidin-2-one]: the IC50 was determined as 378 nM.

In turn, `CC1CN(C[C@@H](N)CC(=O)N2CCn3c(nnc3C(F)(F)F)C2)C(=O)CS1` (stereo partly drawn) [Ex. 94, 4-{(2S)-2-amino-4-oxo-4-[3-(trifluoromethyl)-5,6-dihydro[1,2,4]triazolo[4,3-a]pyrazin-7(8H)-yl]butyl}-6-methylthiomorpholin-3-one] registered a 50% inhibitory concentration (IC50) of 238 nM.

The molecule `N[C@@H](CC(=O)N1CCc2c(nc(-c3ccoc3)nc2C(F)(F)F)C1)CN1CC(F)(F)CCC1=O` [Ex. 67, 1-{(2S)-2-amino-4-[2-(3-furyl)-4-(trifluoromethyl)-5,8-dihydropyrido[3,4-d]pyrimidin-7(6H)-yl]-4-oxobutyl}-5,5-difluoropiperidin-2-one] came in with an IC50 of 10 nM.

Regarding `C[C@@H]1CCC(=O)N(C[C@@H](N)CC(=O)N2CCc3sc(C4CCOCC4)nc3C2)C1` [Ex. 47, (5R)-1-{(2S)-2-amino-4-oxo-4-[2-(tetrahydro-2H-pyran-4-yl)-6,7-dihydro[1,3]thiazolo[4,5,c]pyridin-5(4H)-yl]butyl}-5-methylpiperidin-2-one], 279 nM corresponded to half-maximal inhibition (IC50).

Molecule `CC(C)(C)c1nc2c(c(C(F)(F)F)n1)CCN(C(=O)C[C@H](N)CN1CC(F)(F)CCC1=O)C2` [Ex. 92, 1-{(2S)-2-amino-4-[2-t-butyl-4-(trifluoromethyl)-5,8-dihydropyrido[3,4-d]pyrimidin-7(6H)-yl]-4-oxobutyl}-5,5-difluoropiperidin-2-one] registered an IC50 of 48 nM.

Consider `C[C@@H]1CCC(=O)N(C[C@@H](N)CC(=O)N2CCn3c(nnc3C(F)(F)F)C2)C1` [Ex. 12, 1-[2S-amino-4-oxo-4-(3-trifluoromethyl-5,6-dihydro-8H-[1,2,4]triazolo[4,3-a]pyrazin-7-yl)-butyl]-5R-methyl-piperidin-2-one], for which 35 nM corresponded to half-maximal inhibition (IC50).

As for `CCCc1nc2c(c(C(F)(F)F)n1)CCN(C(=O)C[C@H](N)CN1CC(F)(F)CCC1=O)C2` [Ex. 100, 1-{(2S)-2-amino-4-oxo-4-[2-propyl-4-(trifluoromethyl)-5,8-dihydropyrido[3,4-d]pyrimidin-7(6H)-yl]butyl}-5,5-difluoropiperidin-2-one], the IC50 came out at 18 nM.

`N[C@@H](CC(=O)N1CCc2c(nc(C(F)(F)C(F)(F)F)nc2C(F)(F)F)C1)CN1CC(F)(F)CCC1=O` [Ex. 98, 1-{(2S)-2-amino-4-oxo-4-[2-(pentafluoroethyl)-4-(trifluoromethyl)-5,8-dihydropyrido[3,4-d]pyrimidin-7(6H)-yl]butyl}-5,5-difluoropiperidin-2-one] displayed an IC50 of 68 nM.

The molecule `N[C@@H](CC(=O)N1CCc2c(nc(-c3ccc(F)cc3)nc2C(F)(F)F)C1)CN1CC(F)(F)CCC1=O` [Ex. 30, 1-{(2S)-2-amino-4-[2-(4-fluorophenyl)-4-(trifluoromethyl)-5,8-dihydropyrido[3,4-d]pyrimidin-7(6H)-yl]-4-oxobutyl}-5,5-difluoropiperidin-2-one] displayed an IC50 of 21 nM.
